Laboratory results as given in PubChem BioAssay (NCI).
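Method: 48-hour compound exposure of cells in 96-well plates, five concentrations, linear interpolation of endpoints. At the GI50, growth is halved. Definition used: TGI = concentration required for complete inhibition of growth.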

Tests used:
Experiment in all cases: NCI tumour cell line growth inhibition, 48 h
EKVX NSCLC = test system: EKVX NSCLC
NCI-H23 lung = test system: NCI-H23 lung
RPMI-8226 leukemia = test system: RPMI-8226 leukemia
SNB-78 CNS = test system: SNB-78 CNS
K-562 leukemia = test system: K-562 leukemia
UACC-257 melanoma = test system: UACC-257 melanoma
IGROV1 ovarian = test system: IGROV1 ovarian
OVCAR-3 ovarian = test system: OVCAR-3 ovarian
MALME-3M melanoma = test system: MALME-3M melanoma
CCRF-CEM leukemia = test system: CCRF-CEM leukemia
NCI-H226 lung = test system: NCI-H226 lung
HCT-116 colon = test system: HCT-116 colon
KM12 colon = test system: KM12 colon
SNB-19 CNS = test system: SNB-19 CNS
HOP-92 NSCLC = test system: HOP-92 NSCLC
HT29 colon = test system: HT29 colon
SK-MEL-2 melanoma = test system: SK-MEL-2 melanoma
LXFL 529 NSCLC = test system: LXFL 529 NSCLC
MOLT-4 leukemia = test system: MOLT-4 leukemia
A549 NSCLC = test system: A549 NSCLC
SF-295 CNS = test system: SF-295 CNS
786-0 renal = test system: 786-0 renal
SK-MEL-28 melanoma = test system: SK-MEL-28 melanoma
SK-OV-3 ovarian = test system: SK-OV-3 ovarian
OVCAR-5 ovarian = test system: OVCAR-5 ovarian
DMS 114 small cell lung = test system: DMS 114 small cell lung
HCT-15 colon = test system: HCT-15 colon
SNB-75 CNS = test system: SNB-75 CNS
COLO 205 colon = test system: COLO 205 colon
TK-10 renal = test system: TK-10 renal
U251 CNS = test system: U251 CNS
OVCAR-8 ovarian = test system: OVCAR-8 ovarian
UO-31 renal = test system: UO-31 renal
M14 melanoma = test system: M14 melanoma
DMS 273 small cell lung = test system: DMS 273 small cell lung
ACHN renal = test system: ACHN renal
NCI-H460 lung = test system: NCI-H460 lung
XF 498 CNS = test system: XF 498 CNS
SN12C renal = test system: SN12C renal
M19-MEL melanoma = test system: M19-MEL melanoma
HOP-18 NSCLC = test system: HOP-18 NSCLC
HCC-2998 colon = test system: HCC-2998 colon
HL-60(TB) leukemia = test system: HL-60(TB) leukemia
OVCAR-4 ovarian = test system: OVCAR-4 ovarian
DLD-1 colon = test system: DLD-1 colon
SF-268 CNS = test system: SF-268 CNS
SF-539 CNS = test system: SF-539 CNS
SK-MEL-5 melanoma = test system: SK-MEL-5 melanoma

O=S(=O)([O-])[O-].[OH3+].[OH3+].[OH3+].[Ru+2].c1ccccc1
GI50 (EKVX NSCLC): > 100 µM
TGI (EKVX NSCLC): > 100 µM
GI50 (NCI-H23 lung): > 100 µM
TGI (NCI-H23 lung): > 100 µM
GI50 (RPMI-8226 leukemia): > 100 µM
TGI (RPMI-8226 leukemia): > 100 µM
GI50 (SNB-78 CNS): > 100 µM
TGI (SNB-78 CNS): > 100 µM
GI50 (K-562 leukemia): > 100 µM
TGI (K-562 leukemia): > 100 µM
GI50 (UACC-257 melanoma): > 100 µM
TGI (UACC-257 melanoma): > 100 µM
GI50 (IGROV1 ovarian): > 100 µM
TGI (IGROV1 ovarian): > 100 µM
GI50 (OVCAR-3 ovarian): > 100 µM
TGI (OVCAR-3 ovarian): > 100 µM
GI50 (MALME-3M melanoma): > 100 µM
TGI (MALME-3M melanoma): > 100 µM
GI50 (CCRF-CEM leukemia): > 100 µM
TGI (CCRF-CEM leukemia): > 100 µM
GI50 (NCI-H226 lung): > 100 µM
TGI (NCI-H226 lung): > 100 µM
GI50 (HCT-116 colon): > 100 µM
TGI (HCT-116 colon): > 100 µM
GI50 (KM12 colon): > 100 µM
TGI (KM12 colon): > 100 µM
GI50 (SNB-19 CNS): > 100 µM
TGI (SNB-19 CNS): > 100 µM
GI50 (HOP-92 NSCLC): > 100 µM
TGI (HOP-92 NSCLC): > 100 µM
GI50 (HT29 colon): > 100 µM
TGI (HT29 colon): > 100 µM
GI50 (SK-MEL-2 melanoma): > 100 µM
TGI (SK-MEL-2 melanoma): > 100 µM
GI50 (LXFL 529 NSCLC): > 100 µM
TGI (LXFL 529 NSCLC): > 100 µM
GI50 (MOLT-4 leukemia): > 100 µM
TGI (MOLT-4 leukemia): > 100 µM
GI50 (A549 NSCLC): > 100 µM
TGI (A549 NSCLC): > 100 µM
GI50 (SF-295 CNS): > 100 µM
TGI (SF-295 CNS): > 100 µM
GI50 (786-0 renal): > 100 µM
TGI (786-0 renal): > 100 µM
GI50 (SK-MEL-28 melanoma): > 100 µM
TGI (SK-MEL-28 melanoma): > 100 µM
GI50 (SK-OV-3 ovarian): > 100 µM
TGI (SK-OV-3 ovarian): > 100 µM
GI50 (OVCAR-5 ovarian): > 100 µM
TGI (OVCAR-5 ovarian): > 100 µM
GI50 (DMS 114 small cell lung): > 100 µM
TGI (DMS 114 small cell lung): > 100 µM
GI50 (HCT-15 colon): > 100 µM
TGI (HCT-15 colon): > 100 µM
GI50 (SNB-75 CNS): > 100 µM
TGI (SNB-75 CNS): > 100 µM
GI50 (COLO 205 colon): > 100 µM
TGI (COLO 205 colon): > 100 µM
GI50 (TK-10 renal): > 100 µM
TGI (TK-10 renal): > 100 µM
GI50 (U251 CNS): > 100 µM
TGI (U251 CNS): > 100 µM
GI50 (OVCAR-8 ovarian): > 100 µM
TGI (OVCAR-8 ovarian): > 100 µM
GI50 (UO-31 renal): > 100 µM
TGI (UO-31 renal): > 100 µM
GI50 (M14 melanoma): > 100 µM
TGI (M14 melanoma): > 100 µM
GI50 (DMS 273 small cell lung): > 100 µM
TGI (DMS 273 small cell lung): > 100 µM
GI50 (ACHN renal): > 100 µM
TGI (ACHN renal): > 100 µM
GI50 (NCI-H460 lung): > 100 µM
TGI (NCI-H460 lung): > 100 µM
GI50 (XF 498 CNS): > 100 µM
TGI (XF 498 CNS): > 100 µM
GI50 (SN12C renal): > 100 µM
TGI (SN12C renal): > 100 µM
GI50 (M19-MEL melanoma): > 100 µM
TGI (M19-MEL melanoma): > 100 µM
GI50 (HOP-18 NSCLC): > 100 µM
TGI (HOP-18 NSCLC): > 100 µM
GI50 (HCC-2998 colon): > 100 µM
TGI (HCC-2998 colon): > 100 µM
GI50 (HL-60(TB) leukemia): > 100 µM
TGI (HL-60(TB) leukemia): > 100 µM
GI50 (OVCAR-4 ovarian): > 100 µM
TGI (OVCAR-4 ovarian): > 100 µM
GI50 (DLD-1 colon): > 100 µM
TGI (DLD-1 colon): > 100 µM
GI50 (SF-268 CNS): > 100 µM
TGI (SF-268 CNS): > 100 µM
GI50 (SF-539 CNS): > 100 µM
TGI (SF-539 CNS): > 100 µM
GI50 (SK-MEL-5 melanoma): > 100 µM
TGI (SK-MEL-5 melanoma): > 100 µM
